From article PMC10746543, “Design principles for cyclin K molecular glue degraders” (Nature Chemical Biology, 2023)
“And” between values parts separate entries of the source, which are not always exact repeats. Identical values can stand only once. Like-named read-outs stand apart in the source and are kept apart here. Blank lines part the entries; values can stand above or below the compound they belong to.

Tests used:
[1] = system: cyclin K–eGFP degradation reporter; assay: Cyclin K reporter stability analysis (dual-color cyclin K–eGFP reporter); assay type: cell-based, human; conditions: source data sheet correlations; read-out: DC50
Outline: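 Readout: flow-cytometric eGFP/mCherry ratio (geometric means, round mCherry+ gate) relative to the average of three DMSO wells. Reporter line was HEK293T–Cas9, treated 5 h with compound.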

CDK12–cyclin K = CDK12–cyclin K (Homo sapiens, UniProt Q9NYV4); assay: Lanthascreen kinase binding assay, CDK12; conditions: for IC50: Supplementary Table 2, read-out: Lanthascreen IC50 [nM] CDK12; for Lanthascreen raw signal, sheet CDK12: series r1, duplicates
Sequence of CDK12–cyclin K (Q9NYV4 713-1052): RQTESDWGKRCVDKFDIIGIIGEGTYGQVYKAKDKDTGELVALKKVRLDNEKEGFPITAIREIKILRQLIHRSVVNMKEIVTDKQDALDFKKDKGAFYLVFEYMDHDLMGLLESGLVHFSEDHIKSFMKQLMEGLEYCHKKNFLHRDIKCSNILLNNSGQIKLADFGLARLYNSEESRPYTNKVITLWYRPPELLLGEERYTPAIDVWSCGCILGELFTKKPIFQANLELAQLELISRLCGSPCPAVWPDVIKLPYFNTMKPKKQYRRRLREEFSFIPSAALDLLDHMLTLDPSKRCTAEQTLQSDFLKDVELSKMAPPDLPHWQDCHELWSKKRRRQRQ
Sequence of CDK12–cyclin K (O75909 1-267 partner limits assumed): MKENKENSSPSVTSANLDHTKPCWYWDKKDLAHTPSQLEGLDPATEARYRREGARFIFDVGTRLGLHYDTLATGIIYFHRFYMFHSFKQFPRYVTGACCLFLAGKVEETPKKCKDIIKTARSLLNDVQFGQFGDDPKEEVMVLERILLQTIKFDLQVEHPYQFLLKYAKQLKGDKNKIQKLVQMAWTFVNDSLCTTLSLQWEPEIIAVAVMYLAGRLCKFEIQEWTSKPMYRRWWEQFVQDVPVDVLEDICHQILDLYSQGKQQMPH
Protocol: (§1) Lanthascreen experiments were performed using commercially available reagents (Thermo Fisher) and according to the manufacturer’s instructions.

CDK2–cyclin A = target: T1, CDK2–cyclin A (Homo sapiens, UniProt P24941); assay: Lanthascreen kinase binding assay, CDK2; conditions: for Lanthascreen signal, sheet CDK2: raw replicates, experiment r1-r11
T1 construct: purchased Thermo Fisher
Protocol: as §1

CDK12–cyclin K and DDB1 = target: T2, CDK12–cyclin K and DDB1 (Homo sapiens, UniProt Q16531+Q9NYV4, K965R); assay: TR-FRET ternary complex formation assay (compound titration); assay type: binding
T2 construct: His6–CDK12 (a.a. 713–1,052); full-length or beta-propeller B domain deletion (ΔBPB: a.a. 396–705 deleted) constructs of His6–DDB1ΔBPB, StrepII–Avi–DDB1, or His6–Spy–DDB1; made in house; host or cells: Trichoplusia ni High Five insect cells (baculovirus)
T2 sequence (Q9NYV4 713-1052 K965R): as the sequence (Q9NYV4 713-1052) above, with K253R counted along it
T2 sequence (O75909 1-267 partner): as the sequence (O75909 1-267 partner limits assumed) above
T2 sequence (Q16531 whole entry): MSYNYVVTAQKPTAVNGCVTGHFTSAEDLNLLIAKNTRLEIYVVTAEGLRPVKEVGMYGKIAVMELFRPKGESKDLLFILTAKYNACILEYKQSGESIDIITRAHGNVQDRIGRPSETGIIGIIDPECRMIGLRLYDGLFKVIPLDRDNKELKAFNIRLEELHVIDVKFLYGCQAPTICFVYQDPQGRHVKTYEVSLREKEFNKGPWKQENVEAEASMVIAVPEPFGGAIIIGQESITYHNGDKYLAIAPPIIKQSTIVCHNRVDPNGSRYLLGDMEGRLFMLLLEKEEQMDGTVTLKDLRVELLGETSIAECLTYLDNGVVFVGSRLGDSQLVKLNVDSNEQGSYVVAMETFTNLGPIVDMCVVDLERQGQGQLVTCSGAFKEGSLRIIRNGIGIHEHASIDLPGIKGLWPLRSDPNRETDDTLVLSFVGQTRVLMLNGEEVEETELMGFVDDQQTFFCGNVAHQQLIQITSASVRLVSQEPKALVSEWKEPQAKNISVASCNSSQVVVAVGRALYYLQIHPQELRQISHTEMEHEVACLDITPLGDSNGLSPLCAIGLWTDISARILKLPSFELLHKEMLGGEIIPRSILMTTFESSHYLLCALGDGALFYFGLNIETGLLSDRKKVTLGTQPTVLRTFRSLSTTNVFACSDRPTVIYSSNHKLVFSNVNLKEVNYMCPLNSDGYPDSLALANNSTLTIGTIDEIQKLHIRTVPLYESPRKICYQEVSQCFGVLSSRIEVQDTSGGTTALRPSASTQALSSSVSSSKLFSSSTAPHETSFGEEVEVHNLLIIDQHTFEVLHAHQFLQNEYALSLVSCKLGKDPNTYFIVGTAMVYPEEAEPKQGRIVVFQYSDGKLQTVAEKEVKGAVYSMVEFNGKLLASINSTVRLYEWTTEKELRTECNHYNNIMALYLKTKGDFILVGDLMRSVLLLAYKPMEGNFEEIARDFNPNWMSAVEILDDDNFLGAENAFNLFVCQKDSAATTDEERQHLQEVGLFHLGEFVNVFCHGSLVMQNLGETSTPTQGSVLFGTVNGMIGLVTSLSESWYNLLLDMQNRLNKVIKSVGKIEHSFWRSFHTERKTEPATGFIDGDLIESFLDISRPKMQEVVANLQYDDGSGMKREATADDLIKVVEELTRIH
Outline: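 Background fluorescence is reduced by reading 70 μs after excitation, and complex formation is followed as the 520:490 nm fluorescence ratio.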

HEK293T cells = assay: Drug sensitivity assay (CellTiter-Glo viability) with or without MLN4924 pretreatment; assay type: cell-based, human; conditions: for EC50: Homo sapiens, HEK-293T; for Toxicity rescue: MLN4924-mediated cytotoxicity rescue, 10 µM used where n.d.
Outline: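 First, cells (HEK293T–Cas9, 0.15 × 10^6 ml^−1) are exposed to DMSO or 100 nM MLN4924. Next, drugs follow at 2 h. Finally, CellTiter-Glo is read at day 3 and normalised to DMSO.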

CDK9–cyclin T = target: T3, CDK9–cyclin T (Homo sapiens, UniProt P50750); assay: Lanthascreen kinase binding assay, CDK9; conditions: for Lanthascreen TR-FRET signal (raw ratio), sheet CDK9: first titration set (r1), duplicates
T3 construct: purchased Thermo Fisher
T3 sequence (P50750 whole entry): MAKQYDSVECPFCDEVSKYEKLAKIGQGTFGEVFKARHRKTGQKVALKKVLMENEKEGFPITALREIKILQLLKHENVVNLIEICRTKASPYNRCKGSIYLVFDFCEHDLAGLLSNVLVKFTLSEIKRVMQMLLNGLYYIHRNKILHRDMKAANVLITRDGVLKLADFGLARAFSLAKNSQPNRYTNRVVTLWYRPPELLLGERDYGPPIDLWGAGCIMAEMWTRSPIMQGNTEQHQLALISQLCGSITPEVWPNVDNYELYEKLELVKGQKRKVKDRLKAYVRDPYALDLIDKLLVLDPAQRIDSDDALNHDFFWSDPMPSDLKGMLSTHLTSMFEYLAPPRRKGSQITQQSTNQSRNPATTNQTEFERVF
T3 sequence (O60563 whole entry partner): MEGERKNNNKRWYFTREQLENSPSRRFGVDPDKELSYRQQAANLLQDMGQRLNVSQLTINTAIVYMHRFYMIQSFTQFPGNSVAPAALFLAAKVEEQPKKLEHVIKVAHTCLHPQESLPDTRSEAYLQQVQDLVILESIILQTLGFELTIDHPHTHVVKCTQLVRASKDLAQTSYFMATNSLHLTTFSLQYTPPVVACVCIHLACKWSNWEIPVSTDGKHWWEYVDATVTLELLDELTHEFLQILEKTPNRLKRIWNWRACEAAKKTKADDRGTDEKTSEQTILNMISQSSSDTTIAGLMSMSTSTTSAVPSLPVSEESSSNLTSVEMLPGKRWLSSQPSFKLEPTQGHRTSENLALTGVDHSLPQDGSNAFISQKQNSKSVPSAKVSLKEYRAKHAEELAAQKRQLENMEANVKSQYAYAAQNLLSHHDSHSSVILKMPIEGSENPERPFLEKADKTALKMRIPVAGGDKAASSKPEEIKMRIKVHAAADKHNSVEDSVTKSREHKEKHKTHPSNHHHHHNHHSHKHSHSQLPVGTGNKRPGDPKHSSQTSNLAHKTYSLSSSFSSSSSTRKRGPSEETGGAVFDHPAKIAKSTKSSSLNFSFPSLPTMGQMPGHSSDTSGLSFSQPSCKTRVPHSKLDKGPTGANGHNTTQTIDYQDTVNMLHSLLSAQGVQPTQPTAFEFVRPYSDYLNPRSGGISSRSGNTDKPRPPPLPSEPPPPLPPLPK
Protocol: as §1

[2] = Lanthascreen, average, Extended Data Fig. 8, read-out: CDK2 IC50
[3] = Supplementary Table 2, read-out: Lanthascreen IC50 [nM] CDK2
[4] = source data sheet correlations, read-out: TR-FRET EC50
[5] = Supplementary Table 2, HEK293T viability, 72 h, compound alone, read-out: Cellular assays EC50
[6] = Supplementary Table 2, read-out: Lanthascreen IC50 [nM] CDK9

- DC50 [1]: 0.436 µM
- IC50 (CDK12–cyclin K): 3220 nM
- Lanthascreen raw signal, sheet CDK12 (CDK12–cyclin K; compound 1.02544 nM): 0.009169 and 0.008974
- Lanthascreen raw signal, sheet CDK12 (CDK12–cyclin K; compound 3.15521 nM): 0.009884 and 0.009801
- Lanthascreen raw signal, sheet CDK12 (CDK12–cyclin K; compound 9.46563 nM): 0.008091 and 0.0101
- Lanthascreen raw signal, sheet CDK12 (CDK12–cyclin K; compound 31.5521 nM): 0.00922 and 0.009965
- Lanthascreen raw signal, sheet CDK12 (CDK12–cyclin K; compound 99.3891 nM): 0.01122 and 0.009922
- Lanthascreen raw signal, sheet CDK12 (CDK12–cyclin K; compound 315.521 nM): 0.009639 and 0.01064
- Lanthascreen raw signal, sheet CDK12 (CDK12–cyclin K; compound 3155.21 nM): 0.00898 and 0.008785
- Lanthascreen raw signal, sheet CDK12 (CDK12–cyclin K; compound 10002 nM): 0.007994 and 0.007932
- Lanthascreen signal, sheet CDK2 (CDK2–cyclin A; Compound 1.02544 nM): 0.007579 and 0.009377
- Lanthascreen signal, sheet CDK2 (CDK2–cyclin A; Compound 3.15521 nM): 0.00995 and 0.009356
- Lanthascreen signal, sheet CDK2 (CDK2–cyclin A; Compound 9.46563 nM): 0.01093 and 0.01062
- Lanthascreen signal, sheet CDK2 (CDK2–cyclin A; Compound 31.5521 nM): 0.01004 and 0.01088
- Lanthascreen signal, sheet CDK2 (CDK2–cyclin A; Compound 99.3891 nM): 0.009456 and 0.01029
- Lanthascreen signal, sheet CDK2 (CDK2–cyclin A; Compound 315.521 nM): 0.0104 and 0.01024
- Lanthascreen signal, sheet CDK2 (CDK2–cyclin A; Compound 3155.21 nM): 0.01031 and 0.01162
- Lanthascreen signal, sheet CDK2 (CDK2–cyclin A; Compound 10002 nM): 0.01102 and 0.01013
- IC50 (CDK2–cyclin A; [2]): > 10000 nM
- IC50 (CDK2–cyclin A; [3]): > 10000 nM
- TR-FRET signal (CDK12–cyclin K and DDB1; compound concentration 3.6 nM): 0.4206 and 0.3705
- TR-FRET signal (CDK12–cyclin K and DDB1; compound concentration 4.68 nM): 0.1751 and 0.204
- TR-FRET signal (CDK12–cyclin K and DDB1; compound concentration 15.84 nM): 0.7002 and 0.5772
- TR-FRET signal (CDK12–cyclin K and DDB1; compound concentration 21.6 nM): 0.3896 and 0.4045
- TR-FRET signal (CDK12–cyclin K and DDB1; compound concentration 36 nM): 0.7669 and 0.7566
- TR-FRET signal (CDK12–cyclin K and DDB1; compound concentration 62.6401 nM): 1.529 and 1.274
- TR-FRET signal (CDK12–cyclin K and DDB1; compound concentration 79.2001 nM): 1.336 and 1.393
- TR-FRET signal (CDK12–cyclin K and DDB1; compound concentration 158.4 nM): 1.979 and 2.065
- TR-FRET signal (CDK12–cyclin K and DDB1; compound concentration 244.8 nM): 3.0134 and 2.769
- TR-FRET signal (CDK12–cyclin K and DDB1; compound concentration 309.6 nM): 2.635 and 2.78
- TR-FRET signal (CDK12–cyclin K and DDB1; compound concentration 626.401 nM): 3.319 and 3.352
- TR-FRET signal (CDK12–cyclin K and DDB1; compound concentration 993.601 nM): 3.805 and 3.416
- TR-FRET signal (CDK12–cyclin K and DDB1; compound concentration 1252.8 nM): 3.754 and 3.678
- TR-FRET signal (CDK12–cyclin K and DDB1; compound concentration 2001.6 nM): 4.058 and 3.866
- TR-FRET signal (CDK12–cyclin K and DDB1; compound concentration 2448 nM): 3.936 and 3.906
- TR-FRET signal (CDK12–cyclin K and DDB1; compound concentration 9936.01 nM): 4.2719 and 4.125
- TR-FRET signal (CDK12–cyclin K and DDB1; compound concentration 20016 nM): 4.262 and 4.289
- EC50 (CDK12–cyclin K and DDB1; in vitro complex formation, 50 nM CDK12–cyclin K, 100 nM DDB1, text and figures, read-out: TR-FRET EC50): 0.178 ± 0.014 µM
- EC50 (CDK12–cyclin K and DDB1; sheet MOESM7, read-out: log TR-FRET EC50 (converted)): 0.178 µM
- EC50 (CDK12–cyclin K and DDB1; [4]): 0.178 µM
- IC50 (CDK9–cyclin T; Lanthascreen, average, Extended Data Fig. 8, read-out: CDK9 IC50): > 10000 nM
- IC50 (CDK9–cyclin T; [6]): > 10000 nM
- Lanthascreen TR-FRET signal (raw ratio), sheet CDK9 (CDK9–cyclin T; compound 1.02544 nM): 0.0144 and 0.01353
- Lanthascreen TR-FRET signal (raw ratio), sheet CDK9 (CDK9–cyclin T; compound 3.15521 nM): 0.01322 and 0.01379
- Lanthascreen TR-FRET signal (raw ratio), sheet CDK9 (CDK9–cyclin T; compound 9.46563 nM): 0.01482 and 0.01443
- Lanthascreen TR-FRET signal (raw ratio), sheet CDK9 (CDK9–cyclin T; compound 31.5521 nM): 0.01456 and 0.01497
- Lanthascreen TR-FRET signal (raw ratio), sheet CDK9 (CDK9–cyclin T; compound 99.3891 nM): 0.0144 and 0.01356
- Lanthascreen TR-FRET signal (raw ratio), sheet CDK9 (CDK9–cyclin T; compound 315.521 nM): 0.01557 and 0.0126
- Lanthascreen TR-FRET signal (raw ratio), sheet CDK9 (CDK9–cyclin T; compound 3155.21 nM): 0.01348 and 0.01509
- Lanthascreen TR-FRET signal (raw ratio), sheet CDK9 (CDK9–cyclin T; compound 10002 nM): 0.008815 and 0.01082
Compound: COc1ccc(C)cc1N1C[C@@H](C(=O)Nc2nc3ccccc3[nH]2)CC1=O [Z11]
- EC50 (HEK293T cells; Supplementary Fig. 5, HEK293T, CellTiter Glo, 72h, pre-treatment with 100 nM MLN4924, read-out: Viability EC50, with MLN4924): 1290 µM
- EC50 (HEK293T cells; [5]): 1.07 µM
- Toxicity rescue (HEK293T cells; Supplementary Table 2): 838%

- DC50 [1]: 3.49 µM
- IC50 (CDK12–cyclin K): 1940 nM
- Lanthascreen raw signal, sheet CDK12 (CDK12–cyclin K; compound 1.02544 nM): 0.008768 and 0.008409
- Lanthascreen raw signal, sheet CDK12 (CDK12–cyclin K; compound 3.15521 nM): 0.009734 and 0.0102
- Lanthascreen raw signal, sheet CDK12 (CDK12–cyclin K; compound 9.46563 nM): 0.009031 and 0.008491
- Lanthascreen raw signal, sheet CDK12 (CDK12–cyclin K; compound 31.5521 nM): 0.008872 and 0.01072
- Lanthascreen raw signal, sheet CDK12 (CDK12–cyclin K; compound 99.3891 nM): 0.01101 and 0.009378
- Lanthascreen raw signal, sheet CDK12 (CDK12–cyclin K; compound 315.521 nM): 0.008266 and 0.00879
- Lanthascreen raw signal, sheet CDK12 (CDK12–cyclin K; compound 3155.21 nM): 0.006586 and 0.00831
- Lanthascreen raw signal, sheet CDK12 (CDK12–cyclin K; compound 10002 nM): 0.00787 and 0.005759
- Lanthascreen signal, sheet CDK2 (CDK2–cyclin A; Compound 1.02544 nM): 0.01113 and 0.009882
- Lanthascreen signal, sheet CDK2 (CDK2–cyclin A; Compound 3.15521 nM): 0.009971 and 0.01033
- Lanthascreen signal, sheet CDK2 (CDK2–cyclin A; Compound 9.46563 nM): 0.01229 and 0.009342
- Lanthascreen signal, sheet CDK2 (CDK2–cyclin A; Compound 31.5521 nM): 0.009577 and 0.009489
- Lanthascreen signal, sheet CDK2 (CDK2–cyclin A; Compound 99.3891 nM): 0.0109 and 0.009513
- Lanthascreen signal, sheet CDK2 (CDK2–cyclin A; Compound 315.521 nM): 0.01017 and 0.01118
- Lanthascreen signal, sheet CDK2 (CDK2–cyclin A; Compound 3155.21 nM): 0.009276 and 0.007116
- Lanthascreen signal, sheet CDK2 (CDK2–cyclin A; Compound 10002 nM): 0.008712 and 0.007113
- IC50 (CDK2–cyclin A; [2]): > 10000 nM
- IC50 (CDK2–cyclin A; [3]): > 10000 nM
- EC50 (CDK12–cyclin K and DDB1; [4]): 0.833 µM
- IC50 (CDK9–cyclin T; [6]): 2230 nM
- Lanthascreen TR-FRET signal (raw ratio), sheet CDK9 (CDK9–cyclin T; compound 1.02544 nM): 0.01363 and 0.01444
- Lanthascreen TR-FRET signal (raw ratio), sheet CDK9 (CDK9–cyclin T; compound 3.15521 nM): 0.01374 and 0.01202
- Lanthascreen TR-FRET signal (raw ratio), sheet CDK9 (CDK9–cyclin T; compound 9.46563 nM): 0.01193 and 0.01374
- Lanthascreen TR-FRET signal (raw ratio), sheet CDK9 (CDK9–cyclin T; compound 31.5521 nM): 0.01293 and 0.01321
- Lanthascreen TR-FRET signal (raw ratio), sheet CDK9 (CDK9–cyclin T; compound 99.3891 nM): 0.01614 and 0.01565
- Lanthascreen TR-FRET signal (raw ratio), sheet CDK9 (CDK9–cyclin T; compound 315.521 nM): 0.01216 and 0.01193
- Lanthascreen TR-FRET signal (raw ratio), sheet CDK9 (CDK9–cyclin T; compound 3155.21 nM): 0.009114 and 0.00834
- Lanthascreen TR-FRET signal (raw ratio), sheet CDK9 (CDK9–cyclin T; compound 10002 nM): 0.005656 and 0.005947
Compound: COc1cc2nc(CN3CCc4sccc4C3)[nH]c(=O)c2cc1OC [Z12]
- EC50 (HEK293T cells; [5]): 1.37 µM
- Toxicity rescue (HEK293T cells; Supplementary Table 2): 49%
